Values of other authors, collected in paper PMC3230568 (International Journal of Nanomedicine, 2011).

Legend:
[1] = target: full-length p53 (Homo sapiens, UniProt P04637); settings: single-molecule AFS
[2] = system: NTD of p53; settings: biological as well as computational studies
[3] = system: cancer cells; settings: azurin
[4] = azurin
[5] = system: p53; settings: azurin
[6] = system: cancer cells; settings: azurin, relative to normal cells

Sequence of full-length p53 (P04637 whole entry): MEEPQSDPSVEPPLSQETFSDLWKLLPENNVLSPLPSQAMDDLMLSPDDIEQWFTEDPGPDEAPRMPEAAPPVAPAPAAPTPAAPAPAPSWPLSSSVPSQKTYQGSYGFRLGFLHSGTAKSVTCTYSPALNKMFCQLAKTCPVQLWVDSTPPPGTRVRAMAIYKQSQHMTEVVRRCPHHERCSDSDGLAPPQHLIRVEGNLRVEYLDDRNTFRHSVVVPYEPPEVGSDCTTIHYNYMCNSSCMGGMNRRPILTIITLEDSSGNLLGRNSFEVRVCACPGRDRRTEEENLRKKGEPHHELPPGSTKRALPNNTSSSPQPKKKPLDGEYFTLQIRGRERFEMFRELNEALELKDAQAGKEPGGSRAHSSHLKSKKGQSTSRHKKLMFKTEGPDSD

azurin: copper-containing, electron-transfer protein secreted by Pseudomonas aeruginosa; 128-amino acid
complex formation with full-length p53 [1]: a stable complex is formed | binding to p53 NTD [2]: binds to either the NTD of p53 | anticancer activity in vitro [3]: significant anticancer activity in vitro | anticancer activity in vivo [4]: significant anticancer activity | effect on p53 level [5]: stabilization and subsequent increase in intracellular concentration of p53 | preferential entry into cancer cells [6]: preferentially enters cancer relative to normal cells
